From patent publication US20250162989A1, “USP30 INHIBITORS AND USES THEREOF” (Vincere Biosciences, Inc., priority 2021, published 2025)
Like-named read-outs stand apart in the source and are kept apart here.

Legend:
[1] = biological target: recombinant USP30 (amino acids 57-517 of the human sequence) (Homo sapiens (Human), UniProt Q70CQ3); experiment: In vitro USP30 biochemical assay (Ubiquitin-Rhodamine substrate); settings: fluorescence
Experimental: In vitro biochemical assay to establish the potency of compounds for USP30 inhibition: a 384-well plate assay using a fluorophore tagged substrate of USP30 was used for in vitro screening of compounds. Each compound was tested at
10 different concentrations (0.5 to 10,000 nM) in duplicate wells. […] Data were analyzed using Graph Pad Prism software with a four-parameter (floating slope) fit to log concentration data to determine IC50s.

Kinetic solubility = assay type: physicochemical; settings: 100 mM PBS, 1 hour at room temperature
Experimental: To 396 μL of a 100 mM phosphate buffered saline (PBS) was added 4 μL of a 10 mM stock solution of the compound. The mixture was shaken at 1000 rpm for 1 hour at room temperature. […] Compound concentration was calculated by comparison to a standard calibration curve. The assay was done in duplicate. The results are reported in μMol.

[2] = tested on: Tom20 loss in differentiated RenCell VM; experiment: In-cell Tom20 loss assay; assay type: cell-based; settings: 20 h after compound addition
Experimental: To evaluate Tom20 loss following treatment with compounds and/or antimycin/oligomycin, a 96-well plate assay was performed on differentiated RenCell VM. These were seeded into laminin-coated 96-well plates at 5000 cells/well in normal growth medium (ReNcell NSC maintenance medium+20 ng/ml FDF-2 and 20 ng/ml EGF). After 3 days, growth medium was replaced with differentiation medium (ReNCell NSC medium+0.1 mM dibutyryl cAMP and 2 ng/ml GDNF). On days 1 and 4 following addition of differentiation medium, the media was removed and replaced with fresh differentiation medium. […] After again washing with PBS, cells were imaged using GE INCell 6000 at 40× and quantified using HCA-based quantification algorithm of fluorescence density×area normalized to the number of nuclei.

USP30 = USP30 (Homo sapiens (Human), UniProt Q70CQ3); experiment: Dundee MALDI-TOF mass spectrometry assay (K48-linked diubiquitin cleavage); assay type: biochemical; settings: USP30 25 ng/μl, K48-linked diubiquitin 5.6 μM
Sequence of USP30 (Q70CQ3 whole entry): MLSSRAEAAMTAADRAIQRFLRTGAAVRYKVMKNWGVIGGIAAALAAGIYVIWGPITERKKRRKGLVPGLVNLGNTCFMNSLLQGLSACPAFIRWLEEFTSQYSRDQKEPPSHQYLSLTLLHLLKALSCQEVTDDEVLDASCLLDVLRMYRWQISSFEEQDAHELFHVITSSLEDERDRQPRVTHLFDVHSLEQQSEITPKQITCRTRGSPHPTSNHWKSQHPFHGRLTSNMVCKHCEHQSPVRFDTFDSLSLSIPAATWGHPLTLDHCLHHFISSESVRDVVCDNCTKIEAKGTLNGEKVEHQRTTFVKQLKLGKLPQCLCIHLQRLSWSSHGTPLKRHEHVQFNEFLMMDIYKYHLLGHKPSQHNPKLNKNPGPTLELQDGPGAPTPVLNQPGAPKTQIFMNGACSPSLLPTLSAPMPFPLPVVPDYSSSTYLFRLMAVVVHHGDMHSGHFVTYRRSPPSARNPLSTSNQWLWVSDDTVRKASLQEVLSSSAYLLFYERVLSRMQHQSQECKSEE
Experimental: USP30 was diluted in a buffer containing 40 mM Tris, 0.01% BSA, 1 mM DTT and K48 in 40 mM Tris, 0.01% BSA.
The compounds were pre-incubated with the USP30 for 5 mins at room temp before the K48 dimer addition. The assay mixture was then incubated for 45 mins at room temp. The assay was stopped by the addition of TFA to a final concentration of 2% (v/v).
Acidified samples of the DUB assays were mixed with 0.5 mM 15N-ubiquitin and then with one part of 2% (v/v) TFA and one part of 2.5 DHAP matrix solution (7.6 mg of 2.5 DHAP in […] ethanol and […] of an aqueous 12 mg ml 1 diammonium hydrogen citrate).

[3] = Metabolic stability and intrinsic clearance in liver microsomes (human); assay type: in vitro ADME; settings: 37° C.
Experimental: (§1) Test compounds were incubated with microsomes supplemented with co-factors at 37° C. Typical conditions were: compound concentration of 1 μM and 5 sampling time-points (0, 15, 30, 45 and 60 minutes), in duplicates. At each time-point, the reactions were terminated by the addition of organic solvent. The samples were centrifuged and the parent compound concentration was evaluated by LC-MS/MS measurements.

[4] = Metabolic stability and intrinsic clearance in liver microsomes (mouse); assay type: in vitro ADME; settings: 37° C.
Experimental: as §1

[5] = Metabolic stability and intrinsic clearance in liver microsomes (rat); assay type: in vitro ADME; settings: 37° C.
Experimental: as §1

Caco-2 cells = experiment: Caco-2 permeability screening assay; assay type: in vitro ADME; settings: Caco-2, 10 μM, […] at 37° C.
Experimental: Caco-2 cells were used after a 21-day cell culture in 24-well Transwell plates. Test and reference compounds (Metoprolol, Enalapril and Erythromycin) were prepared in DMSO and added to either the apical or basolateral chambers of the transwell plate assembly at a concentration of 10 μM. Lucifer Yellow was added to the donor buffer in all wells to assess integrity of the cell layers by monitoring Lucifer Yellow permeation. As Lucifer Yellow (LY) cannot freely permeate lipophilic barriers, a high degree of LY transport indicates poor integrity of the cell layer. After 1.5 hrs incubation at 37° C., aliquots were taken from both apical (A) and basal (B) chambers and added to stop solution in a 96 well plate. Concentrations of compound in the samples were measured by LC-MS/MS. The Efflux ratios, as an indication of active efflux from the apical cell surface, were calculated using the ratio of Papp B>A/Papp A>B.

[6] = 1.5 nM recombinant USP30, 25 nM Ubiquitin-Rhodamine
[7] = […] recombinant USP30, 25 nM Ubiquitin-Rhodamine

Sequence of recombinant USP30 (amino acids 57-517 of the human sequence) (Q70CQ3 57-517): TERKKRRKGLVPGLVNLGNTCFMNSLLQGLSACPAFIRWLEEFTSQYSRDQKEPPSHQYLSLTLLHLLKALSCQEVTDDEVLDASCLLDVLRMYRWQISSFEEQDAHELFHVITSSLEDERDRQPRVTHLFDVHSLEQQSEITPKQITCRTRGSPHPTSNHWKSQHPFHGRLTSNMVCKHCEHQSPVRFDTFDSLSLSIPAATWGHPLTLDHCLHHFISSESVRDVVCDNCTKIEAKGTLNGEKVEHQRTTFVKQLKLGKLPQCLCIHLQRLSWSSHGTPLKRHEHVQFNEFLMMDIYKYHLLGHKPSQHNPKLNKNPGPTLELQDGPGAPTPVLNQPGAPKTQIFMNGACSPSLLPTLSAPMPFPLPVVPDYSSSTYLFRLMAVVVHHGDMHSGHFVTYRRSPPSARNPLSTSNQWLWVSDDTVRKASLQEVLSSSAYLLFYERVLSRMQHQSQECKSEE

Compound	IC50 [1, 6] [µM]	Kinetic Solubility (μMol) (Kinetic solubility)	IC50 [1, 7] [µM]	IC50 (USP30; read-out: USP30 IC50 μM (avg)) [µM]	further results
CC(C)(C)NS(=O)(=O)c1ccc(NC(=O)[C@H](Cc2ccc(-c3ccccc3)cc2)NC(=O)c2ccc(F)cc2)cc1 [Compound I-60]	0.05 to 1	D (solubility of <1.0 μMol)			
CC(C)(C)NS(=O)(=O)c1ccc(NC(=O)[C@H](CC2CCOCC2)NC(=O)c2ccc(F)cc2)cc1 [Compound I-1]			< 0.05		IC50 [2]: < 500 nM; IC50 (USP30; read-out: IC50): < 0.05 µM
CN1CCC(C[C@H](NC(=O)c2ccc(F)cc2)C(=O)Nc2ccc(S(=O)(=O)NC(C)(C)C)nc2)CC1 [Compound I-78]	0.05 to 1	A (solubility of ≥75.0 μMol)		< 0.05	
CCN1CCC(C[C@H](NC(=O)c2ccc(F)cc2)C(=O)Nc2ccc(S(=O)(=O)NC(C)(C)C)cc2)CC1 [Compound I-42]	0.05 to 1	A (solubility of ≥75.0 μMol)			
CC(C)(C)NS(=O)(=O)c1ccc(NC(=O)[C@H](CC2CCCCC2)NC(=O)c2ccc(F)cc2)cc1 [Compound I-294]		C (solubility ≥1.0 μMol and <50.0 μMol)	< 0.05		Half-life in human microsomes ([3]; 1 μM): D (half-life of <15 minutes); Half-life in mouse microsomes ([4]; 1 μM): D (half-life of <15 minutes); Half-life in rat microsomes ([5]; 1 μM): D (half-life of <15 minutes); Efflux Ratio (Papp B>A/Papp A>B) (Caco-2 cells): B (efflux ratio >2 and ≤6); Papp(A-B) (10 − 6, cm/sec) (Caco-2 cells; apical to basolateral): 1.8 10 − 6, cm/sec
O=C(N[C@@H](Cc1ccccc1)C(=O)Nc1ccc(S(=O)(=O)NC2COC2)c(O)c1)c1ccc(F)cc1 [Compound I-66]	0.05 to 1	B (solubility of ≥50.0 μMol and <75.0 μMol)			IC50 (USP30; read-out: IC50): < 0.05 µM
CC(C)(C)NS(=O)(=O)c1ccc(NC(=O)[C@H](CC2CCNCC2)NC(=O)c2ccc(F)cn2)cc1 [Compound I-175, (S)—N-(1-((4-(N-(tert-butyl)sulfamoyl)phenyl)amino)-1-oxo-3-(piperidin-4-yl)propan-2-yl)-5-fluoropicolinamide]		A (solubility of ≥75.0 μMol)	< 0.05	< 0.05	
CC(C)(C)NS(=O)(=O)c1ccc(NC(=O)[C@@H](NC(=O)c2ccc(F)cc2)C(C)(C)c2ccccc2)cc1 [Compound I-61]	0.05 to 1	D (solubility of <1.0 μMol)			
CC(C)C[C@H](NC(=O)c1ccc(F)cc1)C(=O)Nc1ccc(S(=O)(=O)NC(C)(C)C)cc1 [Compound I-11]			< 0.05		IC50 [2]: < 500 nM
COc1cc(NC(=O)[C@H](CC2CCOCC2)NC(=O)c2ccc(F)cc2)ccc1S(=O)(=O)NC1COC1 [Compound I-3]	0.05 to 1	A (solubility of ≥75.0 μMol)			half-life at 1 μM [3]: 2 to 6 h; half-life at 1 μM [4]: 0.25 to 2 h; half-life at 1 μM [5]: ≥ 6 h
CC(C)C[C@H](NC(=O)c1ccc(F)cc1)C(=O)Nc1ccc(S(=O)(=O)NC(C)(C)CCO)cc1 [Compound I-20, (S)-4-fluoro-N-(1-((4-(N-(4-hydroxy-2-methylbutan-2-yl)sulfamoyl)phenyl)amino)-4-methyl-1-oxopentan-2-yl)benzamide]	0.05 to 1	B (solubility of ≥50.0 μMol and <75.0 μMol)			
CC(C)(CO)NS(=O)(=O)c1ccc(NC(=O)[C@@H](NC(=O)c2ccc(F)cc2)C(C)(C)c2ccccc2)cc1 [Compound I-62]	1 to 10	C (solubility ≥1.0 μMol and <50.0 μMol)			
CN1CCC(C[C@H](NC(=O)c2ccc(F)cc2)C(=O)Nc2ccc(S(=O)(=O)NC(C)(C)C)cc2)CC1 [Compound I-41]	0.05 to 1	A (solubility of ≥75.0 μMol)			
CC(C)(CCO)NS(=O)(=O)c1ccc(NC(=O)[C@H](Cc2ccc(-c3ccccc3)cc2)NC(=O)c2ccc(F)cc2)cc1 [Compound I-59]	0.05 to 1	D (solubility of <1.0 μMol)			
CCNS(=O)(=O)c1ccc(NC(=O)[C@H](Cc2ccccc2)NC(=O)c2ccc(F)cc2)cc1O [Compound I-67, (S)—N-(1-(4-(N-ethylsulfamoyl)-3-hydroxyphenylamino)-1-oxo-3-phenylpropan-2-yl)-4-fluorobenzamide]	0.05 to 1				IC50 (USP30; read-out: IC50): < 0.05 µM
O=C(N[C@@H](CC1CCOCC1)C(=O)Nc1ccc(S(=O)(=O)NC2CCCC2)nc1)c1ccc(F)cc1 [Compound I-97]			< 0.05	< 0.05	
CC(C)(C)NS(=O)(=O)c1cccc2c(NC(=O)[C@H](Cc3ccccc3)NC(=O)c3ccc(F)nc3)cccc12 [Compound I-182]			< 0.05	< 0.05	
CC(C)(NS(=O)(=O)c1ccc(NC(=O)[C@H](CC2CCNCC2)NC(=O)c2ccc(F)cn2)cc1)C(F)(F)F [Compound I-199]	0.05 to 1			0.05 to 1	
CC(C)(C)NS(=O)(=O)c1ccc(NC(=O)C(CC2CCN(CCO)CC2)NC(=O)c2ccc(F)cc2)cc1 (centres unmarked) [Compound I-121]			< 0.05	< 0.05	
CC(C)CC[C@H](NC(=O)c1ccc(F)cc1)C(=O)Nc1ccc(S(=O)(=O)NC(C)(C)C)cc1 [Compound I-23]		D (solubility of <1.0 μMol)	< 0.05		
COc1cc(NC(=O)[C@H](CC2CCOCC2)NC(=O)c2ccc(F)cc2)ccc1S(=O)(=O)NC1CCC1 [Compound I-86]			< 0.05	< 0.05	
COc1cc(NC(=O)[C@H](CC2CCN(C)CC2)NC(=O)c2ccc(F)cc2)ccc1S(=O)(=O)NC(C)(C)CO [Compound I-93]	0.05 to 1			0.05 to 1	
CC(C)(C)NS(=O)(=O)c1ccc(NC(=O)[C@H](CC2CCOCC2)NC(=O)c2ccc(F)nc2)cc1 [Compound I-196]			< 0.05	< 0.05	
CN1CCC(C[C@H](NC(=O)c2ccc(F)cc2)C(=O)Nc2ccc(S(=O)(=O)NC3COC3)cc2)CC1 [Compound I-99]	0.05 to 1			0.05 to 1	
COc1cc(NC(=O)[C@H](Cc2ccccc2)NC(=O)c2ccc(F)cc2)ccc1S(=O)(=O)N[C@@H](C)CO [Compound I-136]	0.05 to 1			< 0.05	
CC(C)(CF)NS(=O)(=O)c1ccc(NC(=O)[C@H](CC2CCOCC2)NC(=O)c2ccc(F)cc2)cc1 [Compound I-112]			< 0.05	< 0.05	
C[C@@H](CO)NS(=O)(=O)c1ccc(NC(=O)[C@H](Cc2ccccc2)NC(=O)c2ccc(F)cc2)cc1 [Compound I-129]	0.05 to 1			< 0.05	
CC(=O)O[C@@H]1C[C@@H](C(=O)Nc2ccc(S(=O)(=O)NC(C)(C)C)cc2)N(C(=O)c2ccc(F)cc2)C1 [Compound I-266]	0.05 to 1			0.05 to 1	
